In US20030109581A1, “Chemical attractants for yellowjacket wasps” (priority 2001, published 2003):

Key:
[1] = test system: Vespula maculifrons (eastern yellowjacket); experiment: Field trap captures, BARC-W, 7 days in September (FIG. 1); type: in vivo
Description: (§1) Field tests were carried out using lures prepared as described in Example 1. Traps baited with various prepared lures, in addition to unbaited control traps, were hung from trees or fences at three locations: Beltsville Agricultural Research Center-West (BARC-W), Beltsville, Md.; University of Maryland Apiary; and a private residence, Silver Spring, Md., with apple trees on the property. Most tests were conducted late in the season when populations of yellowjackets were greatest. After exposure in the field for varying periods of time, traps were brought to the laboratory for sorting and counting insects by species.
In initial experiments, the equivalence of H vs. A was tested along with the synergism between IB/AA and H/T/B or A/T/B blends. […] The use of acetal (A) is considered more desirable than hexenal (H) for this type of lure because of its lower volatility and greater stability.
Polyvinyl chloride (PVC) plugs containing an about 16% load of volatiles were prepared. For purposes of example, lures containing (E)-2-hexenal diethyl acetal, A (Bedoukian, Inc., Danbury, Conn.) and linalool, L (Aldrich Chemicals, Milwaukee, Wis.) are described.
PVC resin (200 g) was mixed thoroughly with 60 ml dioctyl phthalate, a blend of 30 ml of A with 20 ml of L was poured into the plasticized PVC and mixed. […]

Vespula maculifrons = experiment: Field trap captures, BARC-W, 9 days in September/October; type: in vivo
Description: as §1
The equivalence of T vs. L was tested along with the effect of B and the possible synergism of HB. Six chemical treatments in replicates of three were tested over a period of 9 days in September/October at BARC-W: IB/AA; HB+A/T/B; IB/AA+A/T;
The test also corroborates earlier results indicating localized distribution of yellowjacket species since no V. squamosa were captured and only one individual of V. germanica was caught. The synergistic effect between IB/AA and the novel blends was also confirmed.
Polyvinyl chloride (PVC) plugs containing an about 16% load of volatiles were prepared. For purposes of example, lures containing (E)-2-hexenal diethyl acetal, A (Bedoukian, Inc., Danbury, Conn.) and linalool, L (Aldrich Chemicals, Milwaukee, Wis.) are described. […]

With `CCC/C=C/C(OCC)OCC` [A, (E)-2-hexenal diethyl acetal] the “equivalence of H vs. A” value [1] was “can effectively replace H in this system”.

`OCc1ccccc1` [B, benzyl alcohol] was tested, and the “effect of B on lure activity” value (Vespula maculifrons) was “is not essential for lure activity”.

`C=CC(C)(O)CCC=C(C)C` (stereo not drawn) [L, linalool] was tested, and the “equivalence of T vs. L” value (Vespula maculifrons) was “effectively substitutes for T”.
